{"source": "paper PMC6128854", "about": "(Scientific Reports, 2018)", "target": "hCav2.2 (Homo sapiens, UniProt Q00975)", "sequence (Q00975 whole entry, looked up)": "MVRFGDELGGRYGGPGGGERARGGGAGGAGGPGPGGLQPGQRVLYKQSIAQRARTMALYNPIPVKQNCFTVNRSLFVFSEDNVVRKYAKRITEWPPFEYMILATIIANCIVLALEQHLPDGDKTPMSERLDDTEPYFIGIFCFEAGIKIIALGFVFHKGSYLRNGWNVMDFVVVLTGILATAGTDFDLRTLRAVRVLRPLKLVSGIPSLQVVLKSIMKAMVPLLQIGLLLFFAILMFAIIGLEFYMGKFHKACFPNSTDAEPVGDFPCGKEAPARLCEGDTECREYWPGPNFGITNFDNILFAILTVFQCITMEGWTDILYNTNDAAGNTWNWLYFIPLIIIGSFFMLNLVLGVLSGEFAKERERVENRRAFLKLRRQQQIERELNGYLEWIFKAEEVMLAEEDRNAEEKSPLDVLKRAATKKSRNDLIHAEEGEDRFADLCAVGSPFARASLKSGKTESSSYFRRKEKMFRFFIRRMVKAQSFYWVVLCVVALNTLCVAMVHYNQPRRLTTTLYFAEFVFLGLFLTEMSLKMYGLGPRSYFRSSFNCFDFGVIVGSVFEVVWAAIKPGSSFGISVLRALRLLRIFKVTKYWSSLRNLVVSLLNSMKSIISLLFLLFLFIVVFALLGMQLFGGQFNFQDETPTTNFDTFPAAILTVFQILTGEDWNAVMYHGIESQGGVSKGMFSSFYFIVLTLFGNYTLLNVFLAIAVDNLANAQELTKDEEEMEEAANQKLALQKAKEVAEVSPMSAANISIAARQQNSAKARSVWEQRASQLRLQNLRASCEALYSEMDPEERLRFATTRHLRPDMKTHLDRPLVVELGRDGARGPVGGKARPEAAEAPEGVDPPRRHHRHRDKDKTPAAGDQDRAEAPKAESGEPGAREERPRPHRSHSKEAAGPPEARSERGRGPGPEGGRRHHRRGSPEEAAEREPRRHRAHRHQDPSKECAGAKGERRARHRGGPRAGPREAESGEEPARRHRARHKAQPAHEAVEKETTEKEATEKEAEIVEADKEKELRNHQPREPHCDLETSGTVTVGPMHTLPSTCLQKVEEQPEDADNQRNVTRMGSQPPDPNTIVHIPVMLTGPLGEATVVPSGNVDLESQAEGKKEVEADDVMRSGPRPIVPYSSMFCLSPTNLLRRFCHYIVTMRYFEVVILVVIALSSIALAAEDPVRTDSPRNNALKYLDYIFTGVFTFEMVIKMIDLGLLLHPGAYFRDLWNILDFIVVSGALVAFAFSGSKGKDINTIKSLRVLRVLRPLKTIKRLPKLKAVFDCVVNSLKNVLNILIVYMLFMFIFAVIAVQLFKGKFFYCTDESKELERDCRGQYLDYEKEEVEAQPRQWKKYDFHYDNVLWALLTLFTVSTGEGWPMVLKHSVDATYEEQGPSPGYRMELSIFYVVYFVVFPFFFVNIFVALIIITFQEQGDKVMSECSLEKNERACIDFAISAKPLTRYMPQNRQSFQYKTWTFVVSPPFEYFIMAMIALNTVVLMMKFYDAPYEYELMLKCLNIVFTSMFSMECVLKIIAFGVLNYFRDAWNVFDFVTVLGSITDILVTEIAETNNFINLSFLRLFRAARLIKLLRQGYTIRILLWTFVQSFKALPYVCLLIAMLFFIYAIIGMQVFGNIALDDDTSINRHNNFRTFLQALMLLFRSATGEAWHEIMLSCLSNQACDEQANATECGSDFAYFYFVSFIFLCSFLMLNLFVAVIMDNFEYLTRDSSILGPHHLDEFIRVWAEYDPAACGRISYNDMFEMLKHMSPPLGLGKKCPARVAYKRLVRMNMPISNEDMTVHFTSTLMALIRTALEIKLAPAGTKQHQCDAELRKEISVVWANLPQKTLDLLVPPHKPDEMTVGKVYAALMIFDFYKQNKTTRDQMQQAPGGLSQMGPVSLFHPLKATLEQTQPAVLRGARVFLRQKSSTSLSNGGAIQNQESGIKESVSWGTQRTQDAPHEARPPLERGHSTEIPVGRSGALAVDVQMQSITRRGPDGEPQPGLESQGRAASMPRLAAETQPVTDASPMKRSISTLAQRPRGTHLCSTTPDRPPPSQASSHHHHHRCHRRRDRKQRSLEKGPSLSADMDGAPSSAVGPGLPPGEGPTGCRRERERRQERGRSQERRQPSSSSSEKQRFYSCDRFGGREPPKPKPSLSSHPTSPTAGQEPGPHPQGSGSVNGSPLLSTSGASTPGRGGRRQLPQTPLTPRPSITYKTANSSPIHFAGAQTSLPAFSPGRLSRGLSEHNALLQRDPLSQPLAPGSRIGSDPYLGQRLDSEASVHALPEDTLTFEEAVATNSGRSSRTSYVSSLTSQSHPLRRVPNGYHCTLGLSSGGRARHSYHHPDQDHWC", "assay": "cell-based", "conditions": "SEM", "note": "Positions of bridges follow the written chain, without caps; N, C: chain ends. Non-standard residues stand in square brackets, D forms with d. Residues, ends and D or L forms follow the SMILES beside them. Hyp = O=C(O)[C@@H]1C[C@@H](O)CN1"}
{"smiles": "CC[C@H](C)[C@@H]1NC(=O)[C@@H]2CSSC[C@@H]3NC(=O)[C@H](CCCCN)NC(=O)[C@H](CO)NC(=O)CNC(=O)[C@@H]4C[C@@H](O)CN4C(=O)[C@@H]4CCCN4C(=O)[C@H](CCCCN)NC(=O)[C@@H](N)CSSC[C@H](NC(=O)[C@H](CSSC[C@@H](C(=O)N[C@@H](CCCNC(=N)N)C(=O)N[C@@H](CCCCN)C(=O)N[C@@H](Cc4ccc(O)cc4)C(=O)N[C@@H](Cc4ccc(O)cc4)C(=O)O)NC(=O)[C@H](CCCNC(=N)N)NC(=O)[C@H](CCCCN)NC(=O)[C@H]([C@@H](C)O)NC(=O)[C@H](Cc4ccc(O)cc4)NC(=O)[C@H](CO)NC1=O)NC(=O)[C@H](CC(=O)O)NC(=O)[C@H](Cc1ccc(O)cc1)NC(=O)[C@H](CCSC)NC(=O)[C@H](CO)NC(=O)[C@@H]1C[C@@H](O)CN1C(=O)[C@H](CO)NC3=O)C(=O)N[C@@H]([C@@H](C)O)C(=O)N[C@@H]([C@@H](C)O)C(=O)N2", "note": "[MoVIB-[R13Y]] (H-CKP[Hyp]GSKCS[Hyp]SMYDCCTTCISYTKRCRKYY-OH; disulfide 1-16, 8-19, 15-26)", "values": [{"measurement": "IC50", "value": "3.47 ± 0.55", "unit": "µM"}]}
